Source: DBAASP
≈ marks a conversion by molar mass, not a printed value. Blank lines part the entries; values can stand above or below the molecule they belong to.

How the values were obtained:
Assay in all cases: ≥ marks a high value that may be exact or a test limit, other limits are often not marked, values filed in µg/mL are converted to µM
Bacillus subtilis = system: Bacillus subtilis
[1] = system: Pseudomonas putida NCIM 2102
Escherichia coli W160-37 = system: Escherichia coli W160-37
[2] = system: Staphylococcus aureus 8530
[3] = system: Salmonella typhimurium DA6192
[4] = system: Staphylococcus aureus ATCC 6538
[5] = system: Pseudomonas aeruginosa ATCC 27853
Escherichia coli K-12 = system: Escherichia coli K-12
[6] = system: Salmonella typhimurium DA22427
[7] = system: Bacillus subtilis ATCC 6633
[8] = system: Salmonella typhimurium DA23899
[9] = system: Micrococcus luteus NCIMB 13267
[10] = system: Staphylococcus aureus KCCM 40510
[11] = system: Bacillus subtilis KCTC 3068
[12] = system: Enterococcus faecium KCCM 12118
[13] = system: Enterococcus faecalis KCCM 29212
[14] = system: Staphylococcus epidermidis KCTC 1917
[15] = system: Staphylococcus aureus KCTC 1621
[16] = system: Escherichia coli KCTC 1682
[17] = system: Pseudomonas aeruginosa KCTC 1637
[18] = system: Enterococcus faecium ATCC 51559
[19] = system: Salmonella typhimurium KCTC 1926
[20] = system: Enterococcus faecalis ATCC 51575
Penicillium expansum = system: Penicillium expansum
Aspergillus niger = system: Aspergillus niger
[21] = system: Staphylococcus aureus ATCC 80958
[22] = system: Serratia marcescens ATCC 13880
[23] = system: Klebsiella oxytoca ATCC 13182
[24] = system: Klebsiella pneumoniae ATCC 700603
[25] = system: Escherichia coli ATCC 35218
[26] = system: Staphylococcus aureus LAC
[27] = system: Escherichia coli ATCC 25922
[28] = system: Staphylococcus aureus CCARM 3090
[29] = system: Staphylococcus aureus CCARM 3518
[30] = system: Candida albicans KCTC 7270
[31] = system: Pseudomonas aeruginosa 4007
[32] = system: Escherichia coli CCARM 1238
[33] = system: Pseudomonas aeruginosa 4891
[34] = system: Trichosporon beigelii KCTC 7707
[35] = system: Escherichia coli CCARM 1229

MIC (Bacillus subtilis): 10.5 µM (≈ 19.4 µg/mL) | MIC [1]: ≥ 108 µM | MIC (Escherichia coli W160-37): 21.4 µM (≈ 39.7 µg/mL) | MIC [2]: 16 µM (≈ 29.6 µg/mL)
Compound: CC[C@H](C)[C@H](NC(=O)[C@H](CC(C)C)NC(=O)[C@H](C)NC(=O)[C@@H]1CCCN1C(=O)[C@H](CC(C)C)NC(=O)CN)C(=O)N[C@@H](CO)C(=O)N[C@@H](Cc1c[nH]c2ccccc12)C(=O)N[C@H](C(=O)N[C@@H](CCCCN)C(=O)N[C@@H](CCCN=C(N)N)C(=O)N[C@@H](CCCCN)C(=O)N[C@@H](CCCN=C(N)N)C(=O)N[C@@H](CCC(N)=O)C(=O)N[C@@H](CCC(N)=O)C(=O)NCC(N)=O)[C@@H](C)CC [GLPALISWIKRKRQQG]

MIC [3]: 12 µM (≈ 30.9 µg/mL) | MIC [4]: > 100 µM | MIC [5]: 1.5 µM (≈ 3.86 µg/mL) | MIC (Escherichia coli K-12): 6 µM (≈ 15.4 µg/mL) | MIC [6]: 12 µM (≈ 30.9 µg/mL) | MIC [7]: 5 µM (≈ 12.9 µg/mL) | MIC [8]: 25 µM (≈ 64.3 µg/mL) | MIC [9]: 1 µM (≈ 2.57 µg/mL)
Compound: CC[C@H](C)[C@H](NC(=O)CNC(=O)[C@H](CC(N)=O)NC(=O)[C@H](CCCN=C(N)N)NC(=O)[C@@H](NC(=O)[C@H](CC(N)=O)NC(=O)[C@H](CCCN=C(N)N)NC(=O)CNC(=O)[C@H](CCSC)NC(=O)[C@H](CCCCN)NC(=O)[C@H](CCC(=O)O)NC(=O)[C@@H](NC(=O)[C@H](CCCCN)NC(=O)[C@H](CCCCN)NC(=O)[C@H](Cc1ccccc1)NC(=O)[C@@H](NC(=O)[C@H](CCCCN)NC(=O)[C@H](Cc1c[nH]c2ccccc12)NC(=O)[C@@H](N)CCCCN)C(C)C)[C@@H](C)CC)[C@@H](C)CC)C(=O)N[C@H](C(=O)N[C@@H](CCCCN)C(N)=O)C(C)C [KWKVFKKIEKMGRNIRNGIVK]

MIC [10]: 3.65 µM (≈ 4 µg/mL) | MIC [11]: 1.83 µM (≈ 2 µg/mL) | MIC [12]: 1.83 µM (≈ 2 µg/mL) | MIC [13]: 1.83 µM (≈ 2 µg/mL) | MIC [14]: 3.65 µM (≈ 4 µg/mL) | MIC [15]: 3.65 µM (≈ 4 µg/mL) | MIC [16]: 3.65 µM (≈ 4 µg/mL) | MIC [17]: 7.3 µM (≈ 7.99 µg/mL) | MIC [18]: 0.913 µM (≈ 0.999 µg/mL) | MIC [19]: 3.65 µM (≈ 4 µg/mL) | MIC [20]: 3.65 µM (≈ 4 µg/mL)
Compound: CC[C@H](C)[C@H](NC(=O)[C@H](CC(C)C)NC(=O)[C@H](CC(C)C)NC(=O)[C@@H](N)CC(C)C)C(=O)N[C@H](C(=O)N[C@@H](CC(C)C)C(=O)N[C@@H](CCCN=C(N)N)C(=O)N[C@@H](CCCCN)C(=O)N[C@@H](CCCCN)C(N)=O)C(C)C [LLLIVLRKK]

MIC (Penicillium expansum): 13.3 µM (≈ 25 µg/mL) | MIC (Aspergillus niger): 26.6 µM (≈ 50 µg/mL)
Compound: CC(C)C[C@H](NC(=O)[C@H](Cc1ccccc1)NC(=O)[C@H](CCCN=C(N)N)NC(=O)[C@@H]1CCCN1C(=O)[C@H](C)NC(=O)[C@H](Cc1c[nH]c2ccccc12)NC(=O)[C@H](Cc1c[nH]c2ccccc12)NC(=O)[C@H](C)NC(=O)[C@H](CCCN=C(N)N)NC(=O)[C@H](Cc1ccccc1)NC(=O)[C@H](Cc1ccccc1)NC(=O)[C@H](CCCCN)NC(=O)[C@@H](N)CCCCN)C(=O)N[C@@H](CCCCN)C(N)=O [KKFFRAWWAPRFLK]

MIC [21]: 30 µM (≈ 59.6 µg/mL) | MIC [22]: 30 µM (≈ 59.6 µg/mL) | MIC [23]: 30 µM (≈ 59.6 µg/mL) | MIC [24]: > 30 µM | MIC [25]: 30 µM (≈ 59.6 µg/mL)
Compound: CC[C@H](C)[C@H](NC(=O)[C@H](Cc1ccc(O)cc1)NC(=O)[C@H](Cc1ccc(O)cc1)NC(=O)[C@H](CO)NC(=O)CNC(=O)CNC(=O)[C@H](CC(N)=O)NC(=O)[C@H](CCCN=C(N)N)NC(=O)[C@H](CC(C)C)NC(=O)[C@H](Cc1ccccc1)NC(=O)[C@H](CC(N)=O)NC(=O)CN)C(=O)N[C@H](C(=O)N1CCC[C@H]1C(=O)N[C@@H](C)C(=O)N[C@@H](Cc1ccccc1)C(=O)N[C@@H](CCCN=C(N)N)C(=O)NCC(=O)O)C(C)C [GNFLRNGGSYYIVPAFRG]

MIC [26]: ≥ 104 µM | MIC [27]: > 104 µM
Compound: NC(N)=NCCC[C@H](NC(=O)[C@H](CCCN=C(N)N)NC(=O)[C@H](CCCN=C(N)N)NC(=O)[C@H](CCCN=C(N)N)NC(=O)[C@H](Cc1ccccc1)NC(=O)[C@H](Cc1ccccc1)NC(=O)[C@H](Cc1ccccc1)NC(=O)[C@@H](N)Cc1ccccc1)C(=O)O [FFFFRRRR]

MIC [28]: 4 µM (≈ 11 µg/mL) | MIC [29]: 4 µM (≈ 11 µg/mL) | MIC [30]: ≥ 32 µM | MIC [31]: 2 µM (≈ 5.51 µg/mL) | MIC [32]: 2 µM (≈ 5.51 µg/mL) | MIC [33]: 4 µM (≈ 11 µg/mL) | MIC [34]: ≥ 32 µM | MIC [35]: 2 µM (≈ 5.51 µg/mL)
Compound: CC[C@H](C)[C@H](NC(=O)[C@H](C)NC(=O)[C@H](CCC(=O)O)NC(=O)[C@H](Cc1cnc[nH]1)NC(=O)[C@@H](NC(=O)[C@H](CCCCN)NC(=O)[C@H](CCC(N)=O)NC(=O)[C@H](Cc1ccccc1)NC(=O)[C@@H](NC(=O)[C@H](CCCCN)NC(=O)[C@H](CCCCN)NC(=O)[C@H](CC(C)C)NC(=O)[C@H](C)NC(=O)[C@H](CC(N)=O)NC(=O)[C@H](CC(C)C)NC(=O)CN)C(C)C)[C@@H](C)CC)C(=O)N[C@@H](CCCCN)C(=O)N[C@@H](CC(C)C)C(=O)N[C@H](C(=O)N[C@@H](CC(N)=O)C(=O)N[C@@H](CC(N)=O)C(=O)N[C@@H](Cc1cnc[nH]1)C(=O)N[C@H](C(=O)N[C@@H](CCC(N)=O)C(N)=O)C(C)C)[C@@H](C)CC [GLNALKKVFQKIHEAIKLINNHVQ]
